Two molecules from patent publication US20240238228A1, “COMPOSITIONS AND METHODS FOR TREATING ALLERGIES AND INFLAMMATORY CONDITIONS” (UNIVERSITY OF PITTSBURGH-OF THE COMMONWEALTH SYSTEM OF …, priority 2021, published 2024) can be followed below.

Holding throughout (type): cell-based, murine
In one assay the test system is calpain. As to the kind of experiment: Calpain activity in cell-free supernatants of activated BMMCs. On the procedure: Calpain activity was detected from cell-free supernatants using the Calpain-Glo Protease Assay (Promega). Supernatants were incubated with substrate for 10 min prior to luminescent detection. In some experiments, glyburide or vehicle (0.1% DMSO) were added to cells 10 min prior to Ag. ELISA kits from eBioscience (IL-13), BioLegend, (TNF and IL-10) or RayBiotech (NKA) and used in accord with the manufacturer's recommendations.

Assay [1] relates to BMMCs. As to the kind of experiment: IgE+Ag-activated BMMCs: cytokine release (ELISA) and RNA (RT-PCR). On the procedure:
Mast cells were differentiated from murine bone marrow as has been described. In brief, marrow was expunged from the femurs and tibias of female mice. Cultures were maintained in complete MC/9 medium containing recombinant murine IL-3 (25 ng/mL, Peprotech) for 4-6 weeks prior to use. Peritoneal MCs (PMCs) were expanded from peritoneal washes with MC/9 medium supplemented with IL-3 (25 ng/mL) and SCF (Peprotech, 10 ng/mL) for 21 days. Purity of BMMCs and PMCs was confirmed to be greater than 95% (FIG. 8A). To initiate signaling via the FcεRI, MCs were loaded with IgE (1.0 μg/ml, clone SPE-7, Sigma) for a minimum of 1 h then crosslinked with dinitrophenyl-human serum albumin (DNP-HSA, 100 ng/mL or as indicated). NKA (either LifeTein (Summerset, NJ) or Phoenix Pharmaceuticals (Burlingham, CA)) stock solutions were prepared in tissue culture grade water (100 μM) and stored at -20° C. for a maximum of 30 days. Glyburide (Cayman Chemical) was prepared in DMSO then diluted in PBS. Calpain activity was detected from cell-free supernatants using the Calpain-Glo Protease Assay (Promega). Supernatants were incubated with substrate for 10 min prior to luminescent detection. In some experiments, glyburide or vehicle (0.1% DMSO) were added to cells 10 min prior to Ag. ELISA kits from eBioscience (IL-13), BioLegend, (TNF and IL-10) or RayBiotech (NKA) and used in accord with the manufacturer's recommendations. […] Total RNA was isolated from either MCs or murine ear tissue 3 h hours after NKA injection. Tissue was homogenized in Navy RINO tubes (Next Advance) in a Bullet Blender Storm (Next Advance). RNA was extracted per standard methods with Trizol (Invitrogen). cDNA was reversed transcribed with the Quantitech Reverse Transcription Kit (Qiagen). PCR products were amplified with Fast SybrGreen (ABI) on a StepOne Plus Cycler ([…]) using the following primers: TNF […] NO: 5), TNF […] NO: 6); IL13 […] NO: 7), IL13 […] NO: 8); IL10 […] NO: 9); IL10 […] NO: 10); Bactin […] NO: 11); Bactin […] NO: 12). Data are presented as 2^-ΔΔCT using f-actin as the housekeeping gene and normalizing to either untreated cells or naïve control mice.
(In general: An ELISA detects its analyte on a solid surface through an enzyme-linked reagent.)

For another assay, the system named is PMCs. The experiment in a line: IgE+Ag-activated PMCs: cytokine release (ELISA). On the set-up: detectible levels of IL-10 / levels of IL-13: dose or concentration left out as unconfirmed. On the procedure: Mast cells were differentiated from murine bone marrow as has been described. In brief, marrow was expunged from the femurs and tibias of female mice. Cultures were maintained in complete MC/9 medium containing recombinant murine IL-3 (25 ng/mL, Peprotech) for 4-6 weeks prior to use. Peritoneal MCs (PMCs) were expanded from peritoneal washes with MC/9 medium supplemented with IL-3 (25 ng/mL) and SCF (Peprotech, 10 ng/mL) for 21 days. Purity of BMMCs and PMCs was confirmed to be greater than 95% (FIG. 8A). To initiate signaling via the FcεRI, MCs were loaded with IgE (1.0 μg/ml, clone SPE-7, Sigma) for a minimum of 1 h then crosslinked with dinitrophenyl-human serum albumin (DNP-HSA, 100 ng/mL or as indicated). NKA (either LifeTein (Summerset, NJ) or Phoenix Pharmaceuticals (Burlingham, CA)) stock solutions were prepared in tissue culture grade water (100 μM) and stored at −20° C. for a maximum of 30 days. Glyburide (Cayman Chemical) was prepared in DMSO then diluted in PBS. Calpain activity was detected from cell-free supernatants using the Calpain-Glo Protease Assay (Promega). Supernatants were incubated with substrate for 10 min prior to luminescent detection. In some experiments, glyburide or vehicle (0.1% DMSO) were added to cells 10 min prior to Ag. ELISA kits from eBioscience (IL-13), BioLegend, (TNF and IL-10) or RayBiotech (NKA) and used in accord with the manufacturer's recommendations.

For assay [2], the system named is BMMCs. As to the kind of experiment: Avidin / LAMP-1 surface staining of activated BMMCs. On the set-up: effect on LAMP-1^+ and avidin^+ BMMCs: dose or concentration left out as unconfirmed. On the procedure: MCs were collected and washed with PBS containing 0.5% BSA and 0.1% sodium azide. Non-specific binding was inhibited using FcBlock (PBS with 2.0% goat serum and 0.25 mg/mL anti-CD16/32 (clone 2.4G2, BD Biosciences). Surface staining was done with anti-CD117 eFluor450 (clone 2B8, ThermoFisher), anti-FcεRI FITC (clone MAR-1, ThermoFisher) and anti-ABCA1 Alexa Fluor 647 (clone 5A1-1422, BioRad). Cells were washed with Wash Buffer (PBS with 0.5% BSA and 0.1% sodium azide). To detect differences in granulated proteins at the cell surface, IgE-loaded MCs were activated with DNP-HSA with or without NKA in Tyrode's Buffer for 30 min, washed with Wash Buffer then stained with Avidin Alexa Fluor488 (Invitrogen, Av488, 0.8 μg/5×10^5 cells) and anti-LAMP-1 PE (clone eBio 1D48, ThermoFisher). Data were acquired on either a LSRII or a Fortessa (BD BioSciences). Analysis was performed with FlowJo v10.4 (BD Biosciences).

Setting [3] is: IL-10 KO BMMCs (absence of autocrine IL-10).
Setting [4] is: overnight activation with IgE+Ag in the presence of NKA.
Where [5] appears, read: control Mcpt5Cre^+×IL10^WT PMCs.

As for `COc1ccc(Cl)cc1C(=O)NCCc1ccc(S(=O)(=O)NC(=O)NC2CCCCC2)cc1` [glyburide, reference compound], in the assay with calpain (increasing concentrations of glyburide 10 min prior to activation, supernatants 30 min after activation), the calpain activity entry was “reduced”. In the assay on BMMCs [1] (glyburide and NKA (1000 nM), BMMCs or PMCs, 20-24 h), the “NKA-mediated inhibition with added glyburide” value is “did not further increase”. Besides, the “detectible levels of IL-10” value with BMMCs [1] (glyburide, 20-24 h in culture) is given as “increased”; in the assay with PMCs (glyburide, 20-24 h in culture), “increased”. The “levels of IL-13” value in the assay with BMMCs [1] (glyburide, 20-24 h in culture) is “decreased”; in the assay on PMCs (glyburide, 20-24 h in culture) it was “decreased”. In addition, the “levels of TNF” value with BMMCs [1] (glyburide, 20-24 h in culture) is given as “decreased”; in the assay with PMCs (glyburide 50 mM, 20-24 h in culture), “decreased”. In the assay on BMMCs [2] (IgE-activated 30 minutes), the “effect on LAMP-1^+ and avidin^+ BMMCs” value was “less robust effect”.
As to Neurokinin A [NKA], the extracellular calpain activity result with calpain (IgE+Ag with or without NKA for 60 min) is “significantly downregulated”. Further, in the assay on BMMCs [1] (60 min after activation), the “IL10 RNA” value was “increased”, the IL13 transcription result is reported as “inhibited” and the TNF transcription result is on record as “inhibited”. Further, in the assay with BMMCs [1] (setting [3]), the IL-13 release result was “did not inhibit” and the TNF release entry is “did not inhibit”. Further, in the assay with BMMCs [1] (setting [4]), the IL-13 release result is listed as “inhibited” and the TNF release entry was “inhibited”. In addition, in the assay with BMMCs [1] (overnight culture with NKA), the “IL-10 protein in supernatants” value is “significant increase”. For the same molecule, in the assay on PMCs (setting [5]), the IL-13 release result is reported as “inhibited” and the TNF release result is “inhibited”. Moreover, the “effects of NKA on IL-13 and TNF release” value with PMCs (without PMC-derived IL-10 (Mcpt5Cre^+×IL10^fl/fl)) is listed as “reversed”. Also, the “avidin^+ granules and LAMP-1 on the cell surface” value in the assay on BMMCs [2] (30 min after activation, with or without NKA) is reported as “equivalent amounts”.
